Data on 16 molecules can be found in patent EP0397859A1, “PYRAZINE DERIVATIVES AND MEDICINAL PREPARATION CONTAINING SAME” (TERUMO KABUSHIKI KAISHA, priority 1987, dated 1989).

The test system of experiment [1] is platelet aggregation. The experiment in a line: Platelet aggregation-inhibiting action in rabbit platelet-rich plasma (aggregometer). The conditions noted are these: Oryctolagus cuniculus, 0.05 h, rabbit PRP, 37°C, 3 min incubation. Type of experiment: cell-based. The protocol: Blood was drawn from the carotid artery of a rabbit using a syringe containing 1/10 volume of a 3.8% solution of sodium citrate. The blood was centrifuged to obtain platelet-rich plasma (PRP: 5 x 10^5 cells/µl).
In a cuvette were placed 200 µl of said PRP and 25 µl of a physiological saline solution. The cuvette was set on an aggregometer and warmed at 37°C for 2 min. Into the cuvette was then added 1.25 µl of an ethanol solution of a pyrazine derivative to be tested. After incubated for 3 min., a solution of a platelet-aggregation inducer, arachidonic acid or collagen, was added thereto. Measurements were made for platelet aggregation using an aggregometer (Hematracer IV; Niko Biosciences K.K.). […] Acetylsalicylic acid was used as a comparison.
The 50% inhibitory concentration as shown in the table means the concentration of the solution of a pyrazine derivative required for inhibiting the aggregation of platelets by introducing said pyrazine derivative when the platelet aggregatiqn in the absence of any pyrazine derivative of the invention is taken as 100%.

Experiment [2] concerns the target T1, cyclooxygenase (Oryctolagus cuniculus, UniProt O97554).
T1 construct: The washed platelets thus produced were used as an enzyme source for cyclooxygenase; from tissue; host or cells: washed platelets from rabbit carotid artery blood
T1 sequence (O97554 31-606): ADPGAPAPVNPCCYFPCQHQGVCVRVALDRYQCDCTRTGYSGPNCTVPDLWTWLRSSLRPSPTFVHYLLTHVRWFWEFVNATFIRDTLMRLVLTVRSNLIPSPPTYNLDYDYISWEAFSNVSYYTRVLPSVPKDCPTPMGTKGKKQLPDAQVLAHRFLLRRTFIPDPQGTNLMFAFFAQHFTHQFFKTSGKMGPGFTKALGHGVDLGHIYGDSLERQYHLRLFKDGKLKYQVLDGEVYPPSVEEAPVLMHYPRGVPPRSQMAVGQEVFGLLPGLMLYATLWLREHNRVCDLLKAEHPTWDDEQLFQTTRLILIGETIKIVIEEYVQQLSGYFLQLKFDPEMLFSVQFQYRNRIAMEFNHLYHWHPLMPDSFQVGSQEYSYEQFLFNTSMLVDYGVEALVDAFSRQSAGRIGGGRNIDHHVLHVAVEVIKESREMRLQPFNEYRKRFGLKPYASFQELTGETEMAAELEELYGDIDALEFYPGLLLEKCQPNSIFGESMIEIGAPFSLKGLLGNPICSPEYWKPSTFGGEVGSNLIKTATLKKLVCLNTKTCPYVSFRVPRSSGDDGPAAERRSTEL
Description: Cyclooxygenase-inhibiting activity, washed platelets as enzyme source, 14C-arachidonic acid, TLC radiochromatogram. The experiment is classed as biochemical. Conditions: washed rabbit platelets, 37°C for 3 min; sum of radioactivities of prostaglandin E2, prostaglandin D2 and HHT; read-out: 50% inhibitory concentration (mole). The protocol: In a centrifuge tube was collected 9 volumes of blood from the carotid artery of a rabbit per volume of a 3.8% solution of sodium citric acid contained therein using a canula. Platelet-rich plasma was obtained by centrifugation. To the platelet-rich plasma was added a 77 mM solution of EDTA in a volume of 1/10 per volume of said plasma. After mixing thoroughly, the mixture was subjected to centrifugation at 2500 r.p.m. at room temperature for 10 min. The supernatant was discarded, and the platelets were suspended in approximately 3 ml of a wash (134 mM of sodium chloride, 15 mM of trisaminomethane, 1 mM of EDTA and 5 mM of D-glucose dissolved in distilled water with a pH adjusted to 7.4 with 1N-hydrogen chloride), and the suspension was centrifuged at 2000 rpm at room temperature for 10 min. The supernatant was discarded, and the precipitated platelets were suspended in a 1/15 M phosphate buffer solution at pH 8.0 to adjust the number of the platelets to 6-8 x 10^5 cells/µl.
The washed platelets thus produced were used as an enzyme source for cyclooxygenase. […]
Development was made with a developing solvent (chloroform/methanol/acetic acid/water = 90:8:1:0.8) by approximately 18 cm, and then the inhibiting activity was determined by measuring sum of the radioactivities of prostaglandin E2' prostaglandin D2 and HHT by a radiochromatogram scanner.

[3] abbreviates: aggregation caused by arachidonic acid (80 µM), read-out: 50% aggregation-inhibitory concentration (mole) Arachidonic acid.
Setting [4] is: aggregation caused by collagen (15 µg/ml), read-out: 50% aggregation-inhibitory concentration (mole) Collagen.

Read-outs that look alike come from different tables or passages of the source.

As for `COc1ccc(-c2ncc(C(=O)O)nc2-c2ccc(OC)cc2)cc1` [Example 14, 2,3-bis(p-methoxyphenyl)-pyrazine-5-carboxylic acid], the values for the IC50 in experiment [1] (setting [3]) and in experiment [1] (setting [4]) were 0.26 µM and 5 µM, respectively.
The like results for `Clc1ccccc1Cc1cnc(-c2ccccc2)c(-c2ccccc2)n1` [Example 5, 2,3-diphenyl-5-(o-chlorobenzyl)pyrazine] were, in that order, 4.4 µM and 36 µM.
The matching figures for `Clc1cccc(Cc2cnc(-c3ccccc3)c(-c3ccccc3)n2)c1` [Example 6, 2,3-diphenyl-5-(m-chlorobenzyl)pyrazine]: 4.5 µM and 44 µM.
The like results for `COc1ccc(-c2nc3ccccc3nc2-c2ccc(OC)cc2)cc1` [Example 4, 2,3-bis(p-methoxyphenyl)quinoxaline] were, in that order, 0.038 µM and 0.0098 µM.
`CN(C)c1ccc(Cc2cnc(-c3ccccc3)c(-c3ccccc3)n2)cc1` [Example 9, 2,3-diphenyl-5-(p-dimethylaminobenzyl)pyrazine]: the IC50 turned out to be 84 µM in experiment [1] (setting [3]) and 74 µM in experiment [1] (setting [4]).
Consider `Clc1ccc(Cc2cnc(-c3ccccc3)c(-c3ccccc3)n2)cc1` [Example 7, 2,3-diphenyl-5-(p-chlorobenzyl)pyrazine], for which the IC50 is 82 µM in experiment [1] (setting [3]) and 34 µM in experiment [1] (setting [4]).
The like results for `COc1ccc(-c2nc3c(nc2-c2ccc(OC)cc2)CCCC3)cc1` [Example 3, 2,3-bis(p-methoxyphenyl)-5,6,7,8-tetrahydroquinoxaline] were, in that order, 0.015 µM and 0.024 µM.
The matching figures for `COc1ccc(-c2nc(Cl)c(Cl)nc2-c2ccc(OC)cc2)cc1` [Example 11, 2,3-bis(p-methoxyphenyl)-5,6-dichloropyrazine]: 0.014 µM and 0.22 µM.
Consider `COc1ccc(-c2ncc(Cl)nc2-c2ccc(OC)cc2)cc1` [Example 12, 2,3-bis(p-methoxyphenyl)-5-chloropyrazine], for which the IC50 in experiment [1] (setting [3]) worked out at 0.0038 µM; in experiment [1] (setting [4]) it was 0.0098 µM.
The like results for `c1ccc(-c2ncc(Cc3cccc4ccccc34)nc2-c2ccccc2)cc1` [Example 10, 2,3-diphenyl-5-(l-naphthyl)methylpyrazine] were, in that order, 43 µM and 31 µM.
The matching figures for `COC(=O)c1cnc(-c2ccc(OC)cc2)c(-c2ccc(OC)cc2)n1` [Example 15]: 0.003 µM and 0.13 µM.
In the case of `Brc1ccc(Cc2cnc(-c3ccccc3)c(-c3ccccc3)n2)cc1` [Example 8, 2,3-diphenyl-5-(p-bromobenzyl)pyrazine], the IC50 in experiment [1] (setting [3]) came out at 16 µM; in experiment [1] (setting [4]), 100 µM.
Take `CCc1ncc(-c2ccccc2)nc1-c1ccccc1` [Example 2, 2-ethyl-3,5-diphenylpyrazine]: the figures for the IC50 in experiment [1] (setting [3]) and in experiment [1] (setting [4]) were 6 µM and 19 µM, respectively.
On to `Cc1cnc(-c2ccc(C#N)cc2)c(-c2ccc(C#N)cc2)n1` [X=-CN, R2=H, R3=-CH3], for which the IC50 in experiment [1] (setting [3]) and in experiment [1] (setting [4]) was 1 µM in each case.
For the molecule `COc1ccc(-c2ncc(C#N)nc2-c2ccc(OC)cc2)cc1` [Example 13, 2,3-bis(p-methoxyphenyl)-5-cyanopyrazine], the IC50 in experiment [1] (setting [3]) amounted to 0.024 µM; in experiment [1] (setting [4]), 0.015 µM; in experiment [2], 5 µM.
On to `CCc1nc(CC)c(-c2ccccc2)nc1-c1ccccc1` [Example 1, 2,6-diethyl-3,5-diphenylpyrazine], for which the results for the IC50 in experiment [1] (setting [3]) and in experiment [1] (setting [4]) were 1.7 µM and 0.39 µM, respectively.
